Assay results as given in US4471131A, “Novel silyl esters of N-phosphonomethylglycine” (Monsanto Company, priority 1983, dated 1984).

Columns and labels:
Test in all cases: post-emergence herbicidal activity, greenhouse
Format in all cases: in vivo
Wild Buckwheat = settings: Table III, formulated in anhydrous tetrahydrofuran
Excerpt: (§1) A good grade of top soil is placed in aluminum pans having holes in the bottom and compacted to a depth of 0.95 to 1.27 cm. from the top of the pan. A predetermined number of seeds of each of several dicotyledonous and moncotyledonous annual plant species and/or vegetative propagules for the perennial plant species were placed on the soil and pressed into the soil surface. The seeds and/or vegetative propagules are covered with soil and leveled. The pans are then placed on a sand bench in the greenhouse and watered from below as needed. After the plants reach the desired age (two to three weeks), each pan, except for the control pans, is removed individually to a spraying chamber and sprayed by means of an atomizer at the rates noted. In the spray solution is an amount of an emulsifying agent mixture to give a spray solution or suspension which contains about 0.4% by weight of the emulsifier. The spray solution or suspension contains a sufficient amount of the candidate chemical in order to give application rates corresponding to those set forth in the tables. The pans were returned to the greenhouse and watered as before and the injury to the plants as compared to the control is observed at approximately two and four weeks and the results recorded. In the tables, WAT means "weeks after treatment."
(§2) The post-emergent herbicidal activity index used in Tables II and III is as follows:
(§3) The plant species utilized in these tests are identified by letter in accordance with the following legend: […]

Pennsylvania Smartweed = settings: formulated in anhydrous tetrahydrofuran
Excerpt: as §1, §2, §3

Cocklebur = settings: formulated in anhydrous tetrahydrofuran
Excerpt: as §1, §2, §3

Common Lambsquarters = settings: formulated in anhydrous tetrahydrofuran
Excerpt: as §1, §2, §3

Rice = settings: Table III, formulated in anhydrous tetrahydrofuran
Excerpt: as §1, §2, §3

Quackgrass = settings: Table II, formulated in anhydrous tetrahydrofuran
Excerpt: as §1, §2, §3

Large Crabgrass = settings: Table III, formulated in anhydrous tetrahydrofuran
Excerpt: as §1, §2, §3

Soybean = settings: Table III, formulated in anhydrous tetrahydrofuran
Excerpt: as §1, §2, §3

Sugar Beet = settings: Table III, formulated in anhydrous tetrahydrofuran
Excerpt: as §1, §2, §3

CCCCOC(=O)CNCP(=O)(O)O[Si](C)(C)C(C)(C)C [Ex. 3, Glycine, N-((([(1,1-Dimethylethyl)Dimethylsilyl]oxy)Hydroxyphosphinyl)Methyl)-, Butyl Ester]
Plant Response Index (Q) (Wild Buckwheat; 2 WAT, 1.1 kg/h): 2 (50-74% inhibition) | Plant Response Index (Q) (Wild Buckwheat; 2 WAT, 5.6 kg/h): 3 (75-99% inhibition) | Plant Response Index (Q) (Wild Buckwheat; 2 WAT, .28 kg/h): 1 (25-49% inhibition) | Plant Response Index (Q) (Wild Buckwheat; 4 WAT, 1.1 kg/h): 2 (50-74% inhibition) | Plant Response Index (Q) (Wild Buckwheat; 4 WAT, 5.6 kg/h): 4 (100% inhibition) | Plant Response Index (Q) (Wild Buckwheat; 4 WAT, .28 kg/h): 0 (0-24% inhibition) | Plant Response Index (F) (Pennsylvania Smartweed; Table II, 2 WAT, 5.6 kg/h): 1 (25-49% inhibition) | Plant Response Index (F) (Pennsylvania Smartweed; Table II, 2 WAT, 11.2 kg/h): 2 (50-74% inhibition) | Plant Response Index (F) (Pennsylvania Smartweed; Table II, 4 WAT, 5.6 kg/h): 1 (25-49% inhibition) | Plant Response Index (F) (Pennsylvania Smartweed; Table II, 4 WAT, 11.2 kg/h): 3 (75-99% inhibition) | Plant Response Index (F) (Pennsylvania Smartweed; Table III, 2 WAT, 1.1 kg/h): 2 (50-74% inhibition) | Plant Response Index (F) (Pennsylvania Smartweed; Table III, 2 WAT, 5.6 kg/h): 3 (75-99% inhibition) | Plant Response Index (F) (Pennsylvania Smartweed; Table III, 2 WAT, .28 kg/h): 2 (50-74% inhibition) | Plant Response Index (F) (Pennsylvania Smartweed; Table III, 4 WAT, 1.1 kg/h): 2 (50-74% inhibition) | Plant Response Index (F) (Pennsylvania Smartweed; Table III, 4 WAT, 5.6 kg/h): 3 (75-99% inhibition) | Plant Response Index (F) (Pennsylvania Smartweed; Table III, 4 WAT, .28 kg/h): 2 (50-74% inhibition) | Plant Response Index (B) (Cocklebur; Table II, 2 WAT, 5.6 kg/h): 1 (25-49% inhibition) | Plant Response Index (B) (Cocklebur; Table II, 2 WAT, 11.2 kg/h): 1 (25-49% inhibition) | Plant Response Index (B) (Cocklebur; Table II, 4 WAT, 5.6 kg/h): 1 (25-49% inhibition) | Plant Response Index (B) (Cocklebur; Table II, 4 WAT, 11.2 kg/h): 2 (50-74% inhibition) | Plant Response Index (B) (Cocklebur; Table III, 2 WAT, 1.1 kg/h): 2 (50-74% inhibition) | Plant Response Index (B) (Cocklebur; Table III, 2 WAT, 5.6 kg/h): 2 (50-74% inhibition) | Plant Response Index (B) (Cocklebur; Table III, 2 WAT, .28 kg/h): 2 (50-74% inhibition) | Plant Response Index (B) (Cocklebur; Table III, 4 WAT, 1.1 kg/h): 1 (25-49% inhibition) | Plant Response Index (B) (Cocklebur; Table III, 4 WAT, 5.6 kg/h): 3 (75-99% inhibition) | Plant Response Index (B) (Cocklebur; Table III, 4 WAT, .28 kg/h): 1 (25-49% inhibition) | Plant Response Index (E) (Common Lambsquarters; Table II, 2 WAT, 5.6 kg/h): 3 (75-99% inhibition) | Plant Response Index (E) (Common Lambsquarters; Table II, 2 WAT, 11.2 kg/h): 3 (75-99% inhibition) | Plant Response Index (E) (Common Lambsquarters; Table II, 4 WAT, 5.6 kg/h): 4 (100% inhibition) | Plant Response Index (E) (Common Lambsquarters; Table II, 4 WAT, 11.2 kg/h): 4 (100% inhibition) | Plant Response Index (E) (Common Lambsquarters; Table III, 2 WAT, 1.1 kg/h): 3 (75-99% inhibition) | Plant Response Index (E) (Common Lambsquarters; Table III, 2 WAT, 5.6 kg/h): 4 (100% inhibition) | Plant Response Index (E) (Common Lambsquarters; Table III, 2 WAT, .28 kg/h): 3 (75-99% inhibition) | Plant Response Index (E) (Common Lambsquarters; Table III, 4 WAT, 1.1 kg/h): 3 (75-99% inhibition) | Plant Response Index (E) (Common Lambsquarters; Table III, 4 WAT, 5.6 kg/h): 4 (100% inhibition) | Plant Response Index (E) (Common Lambsquarters; Table III, 4 WAT, .28 kg/h): 4 (100% inhibition) | Plant Response Index (O) (Rice; 2 WAT, 1.1 kg/h): 0 (0-24% inhibition) | Plant Response Index (O) (Rice; 2 WAT, 5.6 kg/h): 1 (25-49% inhibition) | Plant Response Index (O) (Rice; 2 WAT, .28 kg/h): 1 (25-49% inhibition) | Plant Response Index (O) (Rice; 4 WAT, 1.1 kg/h): 1 (25-49% inhibition) | Plant Response Index (O) (Rice; 4 WAT, 5.6 kg/h): 2 (50-74% inhibition) | Plant Response Index (O) (Rice; 4 WAT, .28 kg/h): 0 (0-24% inhibition) | Plant Response Index (H) (Quackgrass; 2 WAT, 5.6 kg/h): 0 (0-24% inhibition) | Plant Response Index (H) (Quackgrass; 2 WAT, 11.2 kg/h): 3 (75-99% inhibition) | Plant Response Index (H) (Quackgrass; 4 WAT, 5.6 kg/h): 1 (25-49% inhibition) | Plant Response Index (H) (Quackgrass; 4 WAT, 11.2 kg/h): 3 (75-99% inhibition) | Plant Response Index (T) (Large Crabgrass; 2 WAT, 1.1 kg/h): 3 (75-99% inhibition) | Plant Response Index (T) (Large Crabgrass; 2 WAT, 5.6 kg/h): 4 (100% inhibition) | Plant Response Index (T) (Large Crabgrass; 2 WAT, .28 kg/h): 3 (75-99% inhibition) | Plant Response Index (T) (Large Crabgrass; 4 WAT, 1.1 kg/h): 4 (100% inhibition) | Plant Response Index (T) (Large Crabgrass; 4 WAT, 5.6 kg/h): 4 (100% inhibition) | Plant Response Index (T) (Large Crabgrass; 4 WAT, .28 kg/h): 4 (100% inhibition) | Plant Response Index (L) (Soybean; 2 WAT, 1.1 kg/h): 2 (50-74% inhibition) | Plant Response Index (L) (Soybean; 2 WAT, 5.6 kg/h): 2 (50-74% inhibition) | Plant Response Index (L) (Soybean; 2 WAT, .28 kg/h): 1 (25-49% inhibition) | Plant Response Index (L) (Soybean; 4 WAT, 1.1 kg/h): 1 (25-49% inhibition) | Plant Response Index (L) (Soybean; 4 WAT, 5.6 kg/h): 2 (50-74% inhibition) | Plant Response Index (L) (Soybean; 4 WAT, .28 kg/h): 0 (0-24% inhibition) | Plant Response Index (M) (Sugar Beet; 2 WAT, 1.1 kg/h): 1 (25-49% inhibition) | Plant Response Index (M) (Sugar Beet; 2 WAT, 5.6 kg/h): 2 (50-74% inhibition) | Plant Response Index (M) (Sugar Beet; 2 WAT, .28 kg/h): 0 (0-24% inhibition) | Plant Response Index (M) (Sugar Beet; 4 WAT, 1.1 kg/h): 1 (25-49% inhibition) | Plant Response Index (M) (Sugar Beet; 4 WAT, 5.6 kg/h): 3 (75-99% inhibition) | Plant Response Index (M) (Sugar Beet; 4 WAT, .28 kg/h): 0 (0-24% inhibition)
